Laboratory results published in PMC5530730, “^11C-Labeling of Aryl Ketones as Candidate Histamine Subtype-3 Receptor PET Radioligands through Pd(0)-Mediated ^11C-Carbonylative Coupling” (Molecules : A Journal of Synthetic Chemistry and Natural …, 2017).
Like-named read-outs stand apart in the source and are kept apart here.

Tests used:
[1] = biological target: H2R (Homo sapiens, UniProt P25021); experiment: Competitive binding, displacement of [3H]tiotidine, PDSP; details: human recombinant receptors expressed in HEK293T cells, read-out: Affinity (Ki, nM) H2
[2] = biological target: H1R (Homo sapiens, UniProt P35367); experiment: Competitive binding, displacement of [3H]pyrilamine, PDSP; details: human recombinant receptors expressed in HEK293T cells, read-out: Affinity (Ki, nM) H1
[3] = biological target: H3 receptors (Cavia porcellus, UniProt Q9JI35); experiment: Competitive binding, displacement of [3H]α-methylhistamine, PDSP; parameters: species or system guinea pig
[4] = biological target: cloned human H3 receptors; parameters: method as in PMID 15634000; details: [3H]α-methylhistamine; membranes of C6 cells expressing cloned human H3 receptors; read-out: Affinity (Ki, nM) H3 (lit); cited from earlier work
[5] = [3H]α-methylhistamine, guinea pig cells expressing H3 receptors, NIMH PDSP, read-out: Affinity (Ki, nM) H3

H3 receptors, sequence (Q9JI35 whole entry): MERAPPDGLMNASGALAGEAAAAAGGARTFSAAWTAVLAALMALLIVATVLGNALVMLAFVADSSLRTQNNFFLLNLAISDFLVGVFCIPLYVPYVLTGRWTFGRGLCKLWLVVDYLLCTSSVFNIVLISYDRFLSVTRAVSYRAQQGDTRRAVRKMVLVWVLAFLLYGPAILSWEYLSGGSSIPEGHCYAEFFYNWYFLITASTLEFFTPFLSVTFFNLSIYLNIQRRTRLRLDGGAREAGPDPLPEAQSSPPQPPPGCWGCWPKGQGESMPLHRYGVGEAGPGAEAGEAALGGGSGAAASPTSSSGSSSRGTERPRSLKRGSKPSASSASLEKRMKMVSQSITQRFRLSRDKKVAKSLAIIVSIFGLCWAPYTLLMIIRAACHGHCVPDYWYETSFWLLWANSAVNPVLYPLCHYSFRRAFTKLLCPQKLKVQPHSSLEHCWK
H2R, sequence (P25021 whole entry): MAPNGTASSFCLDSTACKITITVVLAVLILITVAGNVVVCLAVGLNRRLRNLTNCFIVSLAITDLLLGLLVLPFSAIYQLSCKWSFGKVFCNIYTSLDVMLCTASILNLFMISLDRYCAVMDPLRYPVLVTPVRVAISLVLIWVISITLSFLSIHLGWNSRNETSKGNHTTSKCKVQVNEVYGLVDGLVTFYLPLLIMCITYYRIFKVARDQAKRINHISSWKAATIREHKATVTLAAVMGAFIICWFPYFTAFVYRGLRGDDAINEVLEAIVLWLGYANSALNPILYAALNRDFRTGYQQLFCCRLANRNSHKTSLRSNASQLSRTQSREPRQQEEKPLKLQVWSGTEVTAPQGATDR
H1R, sequence (P35367 whole entry): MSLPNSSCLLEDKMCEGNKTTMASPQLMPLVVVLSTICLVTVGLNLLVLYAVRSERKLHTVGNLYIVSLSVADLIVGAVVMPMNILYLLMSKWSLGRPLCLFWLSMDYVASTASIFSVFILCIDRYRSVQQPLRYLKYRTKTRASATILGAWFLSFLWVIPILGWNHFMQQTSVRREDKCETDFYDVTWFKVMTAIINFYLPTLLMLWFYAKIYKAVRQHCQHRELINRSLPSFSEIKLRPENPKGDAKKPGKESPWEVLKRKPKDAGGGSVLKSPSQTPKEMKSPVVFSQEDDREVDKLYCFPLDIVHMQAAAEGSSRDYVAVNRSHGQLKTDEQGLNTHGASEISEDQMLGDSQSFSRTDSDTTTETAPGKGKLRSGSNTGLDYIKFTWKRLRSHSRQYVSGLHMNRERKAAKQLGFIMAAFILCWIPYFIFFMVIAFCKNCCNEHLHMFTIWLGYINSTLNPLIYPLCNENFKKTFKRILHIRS

SMILES	Ki [1] [nM]	Ki [2] [nM]	Ki [3, 5] [nM]	Ki [4] [nM]	Ki [3] [nM]
C[C@@H]1CCCN1CCc1cc2cc(C(=O)c3ccc([N+](=O)[O-])cc3)ccc2o1 [Ligand 1]	706	1030	2.1	–	–
C[C@@H]1CCCN1CCc1cc2cc(C(=O)c3cc(F)cc(F)c3)ccc2o1 [Ligand 4, (R)-(3,5-Difluorophenyl)(2-(2-(2-methylpyrrolidin-1-yl)ethyl)benzofuran-5-yl)methanone]	630	> 10000	2.9	0.09	–
C[C@@H]1CCCN1CCc1cc2cc(C(=O)c3ccc(F)cc3)ccc2o1 [Ligand 2]	923	7050	–	–	4.2
C[C@@H]1CCCN1CCc1cc2cc(C(=O)c3cccc(F)c3)ccc2o1 [Ligand 3]	1370	> 10000	4.9	0.1	–
